Reference: patent US8747882B2, “Catheter assembly with bactericidal effect” (Astra Tech AB, priority 2005, dated 2014)

Test system: Escherichia coli
Assay: MIC (Minimum Inhibitory Concentration) test, bacterial growth inhibition in synthetic urine (Bioscreen optical density)
Format: cell-based
Conditions: mixed 1+3 with synthetic urine
Method: Experimental tests were conducted in order to verify the above-discussed results. In the experiments, solutions were prepared and sterilized by radiation (E-beam) or heat (autoclave). […] Further, some of the solutions were buffered to a predetermined pH-value with a citrate buffer (a buffer-system consisting of sodium citrates). All solutions were mixed with three volumetric parts synthetic urine in the experiments. Synthetic urine supports bacterial growth and were used as growth medium as well as negative control reference in the experiments. All experiments were made on the bacteria Escherichia coli, since the E. coli bacteria is normally the most relevant bacteria to inhibit for urinary catheter products. MIC (Minimum Inhibitory Concentration) tests were performed to assess the potential of a given substance and concentration to inhibit bacterial growth. The solutions were added to a growth solution containing a specified number of bacteria. The bacteria were then grown in microtiter-wells at 37 deg. C. in a Bioscreen-instrument for a period of at least 40 hours. The bacterial growth/inhibition was monitored in terms of optical density for the solution. Since all microorganisms increase the optical density of a solution during growth and multiplication, the Bioscreen measure of the transmittance/absorbance of light through the sample is correlated to the concentration of microorganisms. The results of the measurements of the different solutions are compared to a negative control reference, i.e. to synthetic urine, for each set of experiments.

[1] = 0.1% w/w, 850 mOsm, pH 6.5, no buffer
[2] = 0.3% w/w, 850 mOsm, pH 6.5, no buffer
[3] = 1.0% w/w, 850 mOsm, pH 6.5, no buffer

Structure (SMILES)	Result (index): inhibition time relative to synthetic urine (0.9% w/w, 900 mOsm, pH 6.5, no buffer)	Result (index): inhibition time relative to synthetic urine (3.0% w/w, 1700 mOsm, pH 6.5, no buffer)	Result (index): inhibition time relative to synthetic urine [1]	Result (index): inhibition time relative to synthetic urine (0.25% w/w, 860 mOsm, pH 5.0, citrate buffer)	Result (index): inhibition time relative to synthetic urine (0.25% w/w, 860 mOsm, pH 5.6, citrate buffer)	Result (index): inhibition time relative to synthetic urine (0.25% w/w, 860 mOsm, pH 5.9, citrate buffer)	Result (index): inhibition time relative to synthetic urine (0.25% w/w, 860 mOsm, pH 6.5, no buffer)	Result (index): inhibition time relative to synthetic urine [2]	Result (index): inhibition time relative to synthetic urine [3]	Result (index): inhibition time relative to synthetic urine (0.05% w/w, 860 mOsm, pH 5.6, citrate buffer)	Result (index): inhibition time relative to synthetic urine (0.05% w/w, 860 mOsm, pH 5.9, citrate buffer)	Result (index): inhibition time relative to synthetic urine (0.05% w/w, 860 mOsm, pH 6.5, no buffer)	Result (index): inhibition time relative to synthetic urine (0.05% w/w, 870 mOsm, pH 5.0, citrate buffer)
[Cl-].[Na+] [NaCl, sodium chloride, reference compound]	1.0 index	1.5 index	–	–	–	–	–	–	–	–	–	–	–
O=C([O-])c1ccccc1.[Na+] [NaB, Sodium Benzoate]	–	–	2.3 index	>8.0 index	>8.0 index	>8.0 index	4.0 index	4.0 index	5.3 index	–	–	–	–
C/C=C/C=C/C(=O)[O-].[K+] [KS, Potassium Sorbate]	–	–	3.8 index	–	–	–	–	5.0 index	5.3 index	1.8 index	1.7 index	1.2 index	>8.0 index
